The text below walks through data of patent US6943181B2, “Use of substituted gamma-lactone compounds as pharmaceutical preparations” (Grunenthal GmbH, priority 2001, dated 2005).

Structures are written as SMILES.

This test concerns the target T1, nitrogen monoxide synthase (NO synthase) (Rattus norvegicus, UniProt P29476).
T1 construct: the supernatant was then decanted off and frozen in portions; from tissue; host or cells: rat cerebellum (homogenate, 20,000 g supernatant)
The experiment in a line: HTS-NOS assay (nitrogen monoxide synthase assay). Format: biochemical. To be noted: compound at 10 μM; enzyme preparation from rat cerebella; [3H]-arginine substrate. An excerpt:
This assay makes it possible to determine the percentage inhibition of NO synthase by a compound of the general formula I used according to the invention by measuring NOS activity on exposure to the compound. NO synthase is here mixed under suitable conditions together with radioactively labelled arginine and the particular compound of the general formula I. After termination of the NO formation reaction at a predetermined time, the quantity of unconverted arginine is directly or indirectly determined. […] This assay may be carried out at follows: • (a) Incubation of the NO synthase with labelled arginine as the substrate in a reaction vessel, • (b) Separation of the labelled arginine from the labelled citrulline optionally arising as a product of the enzymatic reaction at a time at which the concentration of citrulline is rising, • (c) Measurement of the quantity of arginine separated in each case.
Separation is performed by means of a filter plate membrane.
Radioactive arginine is used as the substrate in this HTS-NOS assay. Depending on the type of microtitre plate (MTP), the assay volume may be selected in the range between 25 μl and 250 μl. Depending on the enzyme source used, cofactors and coenzymes are added. The batches are incubated in this microtitre plate (assay MTP) according to step (a) at room temperature and, depending on the enzyme activity used (units), lasts between 5 and 60 minutes. On completion of incubation (step (a)), the plate is placed in a cell harvester, which is equipped with an MTP which has a cation exchange membrane as a filter bottom (filter MTP). All the batches from the assay MTP are transferred into this filter MTP and suction filtered through a cation exchange filter plate, a paper filter loaded with phosphate groups. The filter MTP is then washed with buffer or water. This procedure binds the remaining substrate arginine onto the cation exchanger, while the enzymatically formed radioactive citrulline is quantitatively eluted. Once the filter MTP has been dried and scintillation liquid added, the bound arginine can be counted in the scintillation counter. Low radioactivity indicates an uninhibited NOS reaction. An inhibited enzyme reaction means that the radioactive arginine has not been converted. This means that there is a high level of radioactivity on the filter.
• Arginine, L-[2,3,4-^3H]-monohydrochloride; item no. […] The pH value of the buffer was adjusted to 7.4 at 25° C. • Washing medium: H2O Enzyme Preparation
Rat cerebella were used as the starting tissue. The animals were stunned and killed, the brain tissue, the cerebellum, was dissected out, 1 ml of enzyme preparation buffer (4° C.) was added per cerebellum, and the tissue was disrupted for 1 min at 6000 rpm in a Polytron homogeniser. The mixture was then centrifuged at 4° C. for 15 min at 20,000 g, and the supernatant was then decanted off and frozen in portions at −80° C. (discarding the precipitate).
96-Well MTPs with a well capacity of ≦250 μl were used Pipetting sequence: see table 1:
Once the pipetting operation was complete, a lid was laid on top of this MTP (assay MTP). Incubation at 25° C. (room temperature (RT)) for 5-60 min, depending on the quantity and activity of the enzyme used.
The contents of the assay MTP were then transferred with the assistance of a 96 well cell harvester into a 96 well cation exchange MTP (filter MTP) and suction filtered. A single washing with […] of H2O (from a trough) was then performed.
The plate was then dried for 1 h at 60° C. in a drying cabinet. The bottom of the filter MTP was then carefully sealed from beneath with a “back seal”. 35 μl of scintillating material were then pipetted into each well. The top of the plate was also sealed with a “top seal”. After 1 hour's waiting time, the plate was assessed on the β-counter.

As usually defined, the inhibition is the share of the control response that was lost under treatment. With `CCCc1cccc(NC2CC(C)(c3ccc(C(C)(C)C)cc3)OC2=O)n1` (centres unmarked) [Example 15, 5-(4-tert-Butyl-phenyl)-5-methyl-3-(6-propyl-pyridin-2-ylamino)-dihydro-furan-2-one], the inhibition at 10 µM is 45%.

Compound `Cc1ccc(C2(C)CC(Nc3ccc4cccc(O)c4n3)C(=O)O2)c(C)c1` (centres unmarked) [Example 1, 5-(2,4-Dimethyl-phenyl)-3-(8-hydroxy-quinolin-2-ylamino)-5-methyl-dihydro-furan-2-one] came in with an inhibition at 10 µM of 40%.

`Cc1cnc(NC2CC(C)(c3ccc(C#N)cc3)OC2=O)c(Br)c1` (centres unmarked) [Example 13, 4-[4-(3-Bromo-5-methyl-pyridin-2-ylamino)-2-methyl-5-oxo-tetrahydro-furan-2-yl]-benzonitrile] yielded an inhibition at 10 µM of 44%.

`Cc1ccnc(NC2CC(C)(c3ccc(C)cc3C)OC2=O)c1` (centres unmarked) [Example 7, 5-(2,4-Dimethyl-phenyl)-5-methyl-3-(4-methyl-pyridin-2-ylamino)-dihydro-furan-2-one] gave an inhibition at 10 µM of 45%.

With `Cc1cccc(C2(C)CC(Nc3ccc4ccccc4n3)C(=O)O2)c1` (centres unmarked) [Example 9, 5-Methyl-3-(quinolin-2-ylamino)-5-m-tolyl-dihydro-furan-2-one], the inhibition at 10 µM came to 51%.

Turning to `Cc1cnc(NC2CC(C)(c3ccc(C(C)(C)C)cc3)OC2=O)c(Br)c1` (centres unmarked) [Example 14, 3-(3-Bromo-5-methyl-pyridin-2-ylamino)-5-(4-tert-butyl-phenyl)-5-methyl-dihydro-furan-2-one], the inhibition at 10 µM amounted to 48%.

The compound `CCCc1cccc(NC2CC(C)(c3cc4ccccc4s3)OC2=O)n1` (centres unmarked) [Example 27, 5-Benzo[b]thiophen-2-yl-5-methyl-3-(6-propyl-pyridin-2-ylamino)-dihydro-furan-2-one] had an inhibition at 10 µM of 43%.

With `CCCc1nc(NC2CC(C)(c3cc(OC)cc(OC)c3)OC2=O)ncc1C(=O)OCC` (centres unmarked) [Example 61, 2-[5-(3,5-Dimethoxy-phenyl)-5-methyl-2-oxo-tetrahydro-furan-3-ylamino]-4-propyl-pyrimidine-5-carboxylic acid ethyl ester], the inhibition at 10 µM is 40%.

For `CC1(c2ccc3ccccc3c2)CC(Nc2ccc([N+](=O)[O-])cn2)C(=O)O1` (centres unmarked) [Example 44, 5-Methyl-5-naphthalen-2-yl-3-(5-nitro-pyridin-2-ylamino)-dihydro-furan-2-one], the inhibition at 10 µM worked out at 47%.

As to `Cc1ccnc(NC2CC(C)(c3ccc(Br)cc3)OC2=O)c1[N+](=O)[O-]` (centres unmarked) [Example 52, 5-(4-Bromo-phenyl)-5-methyl-3-(4-methyl-3-nitro-pyridin-2-ylamino)-dihydro-furan-2-one], testing at 10 µM gave an inhibition of 43%.

Regarding `COc1ccc(C2(C)CC(Nc3cc(C)cc(C)n3)C(=O)O2)cc1` (centres unmarked) [Example 73, 3-(4,6-Dimethyl-pyridin-2-ylamino)-5-(4-methoxy-phenyl)-5-methyl-dihydro-furan-2-one], the inhibition at 10 µM was 56%.

On to `Cc1ccnc(NC2CC(C)(c3ccc(C(C)(C)C)cc3)OC2=O)c1[N+](=O)[O-]` (centres unmarked) [Example 16, 5-(4-tert-Butyl-phenyl)-5-methyl-3-(4-methyl-3-nitro-pyridin-2-ylamino)-dihydro-furan-2-one], for which the inhibition at 10 µM came out at 47%.

`CC(C)C1(c2ccccc2)CC(Nc2ccc([N+](=O)[O-])cn2)C(=O)O1` (centres unmarked) [Example 43, 5-Isopropyl-3-(5-nitro-pyridin-2-ylamino)-5-phenyl-dihydro-furan-2-one] displayed an inhibition at 10 µM of 45%.

In turn, `Cc1cc(C)nc(NC2CC(C)(c3ccc(C(C)C)cc3)OC2=O)c1` (centres unmarked) [Example 28, 3-(4,6-Dimethyl-pyridin-2-ylamino)-5-(4-isopropyl-phenyl)-5-methyl-dihydro-furan-2-one] showed an inhibition at 10 µM of 68%.

As for `Cc1cc(C)nc(NC2CC(C)(c3ccc(C)cc3C)OC2=O)c1` (centres unmarked) [Example 3, 5-(2,4-Dimethyl-phenyl)-3-(4,6-dimethyl-pyridin-2-ylamino)-5-methyl-dihydro-furan-2-one], testing at 10 µM gave an inhibition of 42%.

With `COc1ccc(OC)c(C2(C)CC(Nc3ncc(C(F)(F)F)cc3Cl)C(=O)O2)c1` (centres unmarked) [Example 69, 3-(3-Chloro-5-trifluoromethyl-pyridin-2-ylamino)-5-(2,5-dimethoxy-phenyl)-5-methyl-dihydro-furan-2-one], testing at 10 µM gave an inhibition of 58%.

On to `COc1ccccc1C1(C)CC(Nc2ncc(Cl)cc2Cl)C(=O)O1` (centres unmarked) [Example 70, 3-(3,5-Dichloro-pyridin-2-ylamino)-5-(2-methoxy-phenyl)-5-methyl-dihydro-furan-2-one], for which the inhibition at 10 µM was found to be 51%.

As for `CCCc1cccc(NC2CC(C)(c3cccc4ccccc34)OC2=O)n1` (stereo not drawn) [Example 49, 5-Methyl-5-naphthalen-l-yl-3-(6-propyl-pyridin-2-ylamino)-dihydro-furan-2-one], the “NOS (% inhibition)” value was determined as 53%.

For the compound `COc1ccccc1C1(C)CC(Nc2ccccn2)C(=O)O1` (centres unmarked) [Example 67, 5-(2-Methoxy-phenyl)-5-methyl-3-(pyridin-2-ylamino)-dihydro-furan-2-one], the inhibition at 10 µM amounted to 45%.

As for `CC1(c2ccc(Br)cc2)CC(Nc2ncccc2OCc2ccccc2)C(=O)O1` (centres unmarked) [Example 56, 3-(3-Benzyloxy-pyridin-2-ylamino)-5-(4-bromo-phenyl)-5-methyl-dihydro-furan-2-one], the inhibition at 10 µM worked out at 59%.

`Cc1cnc(NC2CC(C)(c3cccc4ccccc34)OC2=O)c(Br)c1` (stereo not drawn) [Example 48, 3-(3-Bromo-5-methyl-pyridin-2-ylamino)-5-methyl-5-naphthalen-l-yl-dihydro-furan-2-one]: the “NOS (% inhibition)” value was determined as 45%.

`Cc1ccnc(NC2CC(C)(c3ccc(C(C)(C)C)cc3)OC2=O)c1` (centres unmarked) [Example 24, 5-(4-tert-Butyl-phenyl)-5-methyl-3-(4-methyl-pyridin-2-ylamino)-dihydro-furan-2-one] gave an inhibition at 10 µM of 84%.

With `Cc1ccnc(NC2CC(C)(c3cccc(Cl)c3)OC2=O)c1[N+](=O)[O-]` (centres unmarked) [Example 51, 5-(3-Chloro-phenyl)-5-methyl-3-(4-methyl-3-nitro-pyridin-2-ylamino)-dihydro-furan-2-one], the inhibition at 10 µM was determined as 50%.

Compound `COc1ccc(C2(C)CC(Nc3cc(C)cc(C)n3)C(=O)O2)cc1OC` (centres unmarked) [Example 74, 5-(3,4-Dimethoxy-phenyl)-3-(4,6-dimethyl-pyridin-2-ylamino)-5-methyl-dihydro-furan-2-one] showed an inhibition at 10 µM of 51%.

In the case of `COc1ccc(OC)c(C2(C)CC(Nc3n[nH]c(SC)c3C#N)C(=O)O2)c1` (centres unmarked) [Example 65, 3-[5-(2,5-Dimethoxy-phenyl)-5-methyl-2-oxo-tetrahydro-furan-3-ylamino]-5-methylsulfanyl-1H-pyrazole-4-carbonitrile], testing at 10 µM gave an inhibition of 42%.

With `Cc1cc(C)nc(NC2CC(C)(c3ccc4ccccc4c3)OC2=O)c1` (centres unmarked) [Example 36, 3-(4,6-Dimethyl-pyridin-2-ylamino)-5-methyl-5-naphthalen-2-yl-dihydro-furan-2-one], the inhibition at 10 µM was 65%.

Compound `Cc1cc(C)nc(NC2CC(C)(c3cccc(Cl)c3)OC2=O)c1` (centres unmarked) [Example 58, 5-(3-Chloro-phenyl)-3-(4,6-dimethyl-pyridin-2-ylamino)-5-methyl-dihydro-furan-2-one] registered an inhibition at 10 µM of 73%.

For the compound `Cc1cc(C)nc(NC2CC(C)(c3ccc(C(C)(C)C)cc3)OC2=O)c1` (centres unmarked) [Example 22, 5-(4-tert-Butyl-phenyl)-3-(4,6-dimethyl-pyridin-2-yl-amino)-5-methyl-dihydrofuran-2-one], 10 µM produced 44% inhibition.

In turn, `COc1cccc(C2(C)CC(Nc3cc(C)cc(C)n3)C(=O)O2)c1` (centres unmarked) [Example 72, 3-(4,6-Dimethyl-pyridin-2-ylamino)-5-(3-methoxy-phenyl)-5-methyl-dihydro-furan-2-one] returned an inhibition at 10 µM of 40%.
